Converted amounts (≈) assume the structure as drawn.
experiment: Inhibition of lipase

Compound | IC50 [µg/mL]
COc1cc(C(=O)OCc2ccc(O[C@@H]3O[C@H](COC(=O)/C=C/c4ccc(O)c(O)c4)[C@@H](O)[C@H](O)[C@H]3O)c(O)c2)ccc1O [LITSEAEFOLOSIDE C] | 0.31 (≈ 0.504 µM)
COc1cc(C(=O)OCc2ccc(O[C@@H]3O[C@H](CO)[C@@H](O)[C@H](O)[C@H]3O)c(O)c2)ccc1O [VANILLOYL CALLERYANIN] | > 100
COc1cc(C(=O)OCc2ccc(O[C@@H]3O[C@H](COC(C)=O)[C@@H](O)[C@H](O)[C@H]3O)c(O)c2)ccc1O [LITSEAEFOLOSIDE A] | > 100

From ChEMBL document CHEMBL1151270, “Phenolic and triterpene glycosides from the stems of Ilex litseaefolia” (J Nat Prod, 2005)
